In patent US20240384268A1, “Oligonucleotides” (Hudson Institute of Medical Research, priority 2021, published 2024):
In the oligonucleotide strings, read from the 5' end, every base follows the letter of its sugar. An asterisk marks phosphorothioate; unmarked linkages are phosphodiester. Other units and linkages are bracketed, terminal groups are in braces. A string of capitals states the bases alone. d = 2'-deoxy (DNA); m = 2'-O-methyl

Target: T1, TLR8 (Homo sapiens, UniProt Q9NR97)
T1 sequence (Q9NR97 27-1041): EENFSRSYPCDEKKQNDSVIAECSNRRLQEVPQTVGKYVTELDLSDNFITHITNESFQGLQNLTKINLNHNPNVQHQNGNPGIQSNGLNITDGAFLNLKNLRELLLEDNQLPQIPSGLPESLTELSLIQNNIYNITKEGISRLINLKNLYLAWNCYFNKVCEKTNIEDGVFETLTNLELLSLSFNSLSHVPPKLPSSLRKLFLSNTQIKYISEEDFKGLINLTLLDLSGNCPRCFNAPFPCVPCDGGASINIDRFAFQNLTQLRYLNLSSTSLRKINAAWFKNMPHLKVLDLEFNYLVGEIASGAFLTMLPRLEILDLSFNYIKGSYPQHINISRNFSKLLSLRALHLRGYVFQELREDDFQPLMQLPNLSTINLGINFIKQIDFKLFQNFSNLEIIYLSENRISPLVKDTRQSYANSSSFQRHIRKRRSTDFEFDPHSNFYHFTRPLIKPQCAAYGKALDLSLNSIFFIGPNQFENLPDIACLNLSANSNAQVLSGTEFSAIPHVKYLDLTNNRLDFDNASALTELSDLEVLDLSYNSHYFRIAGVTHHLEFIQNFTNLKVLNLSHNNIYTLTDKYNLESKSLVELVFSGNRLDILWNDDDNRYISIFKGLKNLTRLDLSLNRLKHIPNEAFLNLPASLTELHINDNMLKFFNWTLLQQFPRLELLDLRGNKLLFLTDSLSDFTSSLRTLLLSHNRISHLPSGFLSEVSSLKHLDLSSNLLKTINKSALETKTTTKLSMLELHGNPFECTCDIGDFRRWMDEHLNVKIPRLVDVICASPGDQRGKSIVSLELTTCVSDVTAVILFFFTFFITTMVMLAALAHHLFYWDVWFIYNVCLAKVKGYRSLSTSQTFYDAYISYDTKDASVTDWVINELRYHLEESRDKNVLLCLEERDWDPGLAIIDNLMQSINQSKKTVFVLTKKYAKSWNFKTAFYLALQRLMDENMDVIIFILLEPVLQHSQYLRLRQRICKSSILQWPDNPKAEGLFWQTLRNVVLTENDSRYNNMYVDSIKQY
Experiment: HEK-TLR8 NF-κB-luciferase reporter, R848 or Motolimod stimulation (potentiation or inhibition)
Format: cell-based
Design: expressed in transfected cells; host or cells: 293XLhTLR8 (HEK293)
Conditions: for TLR8 100 nM: MOE-modified ASO at 100 nM; for TLR8 100 nM / TLR8 500 nM: averaged NF-κB-Luciferase relative to R848 condition (fold increase); for TLR8 500 nM: MOE-modified ASO at 500 nM; for TLR8-500 nM: averaged NF-κB-Luciferase relative to R848: HEK-TLR8, 500 nM ASO, fold increase relative to R848 without ASO (Alharbi et al., 2020)

Substance: AGTCGTAGTTGCTTCCTAAC (antisense; 2'-MOE modified, pattern not given here) [MB21D1-1181 MOE]
- TLR8 100 nM: 3.091
- TLR8 500 nM: 5.889

Substance: ATGCCATCCACTTGATAGGC (antisense; 2'-MOE modified, pattern not given here) [EGFR-2874 MOE]
- TLR8 100 nM: 2.028
- TLR8 500 nM: 2.025

Substance: CGGAGGTCTTGGCTTCGTGG (antisense; 2'-MOE modified, pattern not given here) [MB21D1-525 MOE]
- TLR8 100 nM: 2.197
- TLR8 500 nM: 3.257

Substance: CGGCATCCACCACGTCGTCC (antisense; 2'-MOE modified, pattern not given here) [EGFR-3267 MOE]
- TLR8 100 nM: 1.249
- TLR8 500 nM: 0.903

Substance: GCCCATCCATGAGGTCCTGG (antisense; 2'-MOE modified, pattern not given here) [CTNN2B-2545 MOE]
- TLR8 100 nM: 0.899
- TLR8 500 nM: 0.541

Substance: GCTGACAAAGATTCACTGGT (antisense; 2'-MOE modified, pattern not given here) [HPRT-1353 MOE]
- TLR8 100 nM: 1.475
- TLR8 500 nM: 3.067

Substance: GGGTATCGAAAGAGTCTGGA (antisense; 2'-MOE modified, pattern not given here) [EGFR-3908 MOE]
- TLR8 100 nM: 3.138
- TLR8 500 nM: 4.073

Substance: GGTTTTGGCTGGGATCAAGT (antisense; 2'-MOE modified, pattern not given here) [CAMSAP1-4697 MOE]
- TLR8 100 nM: 5.496
- TLR8 500 nM: 6.332

Substance: GTCCAAGATCAGCAGTCTCA (antisense; 2'-MOE modified, pattern not given here) [CTNN2B-2341 MOE]
- TLR8 100 nM: 3.021
- TLR8 500 nM: 3.364

Substance: TCCGGCCTCGGAAGCTCTCT (antisense; 2'-MOE modified, pattern not given here) [MB21D1-168 MOE]
- TLR8 100 nM: 0.816
- TLR8 500 nM: 0.781

Substance: TGGCAGGCTCAGTGATGTCT (antisense; 2'-MOE modified, pattern not given here) [CTNN2B-1642 MOE]
- TLR8 100 nM: 1.074
- TLR8 500 nM: 0.973

Substance: TGGGCTGGAATCCGAGTTAT (antisense; 2'-MOE modified, pattern not given here) [EGFR-4705 MOE]
- TLR8 100 nM: 1.452
- TLR8 500 nM: 2.058

Substance: TGGGTTACGGCTCAGTATGG (antisense; 2'-MOE modified, pattern not given here) [CAMSAP1-4295 MOE]
- TLR8 100 nM: 1.610
- TLR8 500 nM: 1.538

Substance: TTTGCACACTTCGTACCCAA (antisense; 2'-MOE modified, pattern not given here) [CAMSAP1-4916 MOE]
- TLR8 100 nM: 1.877
- TLR8 500 nM: 2.199

Substance: mA*mA*mA*mA*mG*A*T*T*A*T*C*T*T*C*T*mU*mU*mU*mA*mA (AAAAGATTATCTTCTUUUAA; sugars from the 5' end m5 d10 m5, all phosphorothioate, methylation of C not given here) [[CDKN2B-AS1]2133]
- TLR8-500 nM: averaged NF-κB-Luciferase relative to R848: 4.68 fold

Substance: mA*mA*mA*mA*mU*A*A*G*G*G*G*A*A*T*A*mG*mG*mG*mG*mA (mA*mA*mA*mA*mU*dA*dA*dG*dG*dG*dG*dA*dA*dT*dA*mG*mG*mG*mG*mA; antisense) [[CDKN2B-AS1]79]
- TLR8-500 nM: averaged NF-κB-Luciferase relative to R848: 0.71 fold

Substance: mA*mA*mA*mG*mA*T*T*A*T*C*T*T*C*T*T*mU*mU*mA*mA*mU (mA*mA*mA*mG*mA*dT*dT*dA*dT*dC*dT*dT*dC*dT*dT*mU*mU*mA*mA*mU) [[CDKN2B-AS1]2132]
- TLR8-500 nM: averaged NF-κB-Luciferase relative to R848: 5.04 fold

Substance: mA*mA*mA*mU*mG*T*C*C*T*G*G*C*C*C*T*mC*mA*mC*mU*mG (mA*mA*mA*mU*mG*dT*dC*dC*dT*dG*dG*dC*dC*dC*dT*mC*mA*mC*mU*mG) [[LINC-PINT]148.1]
- TLR8-500 nM: averaged NF-κB-Luciferase relative to R848: 1.56 fold

Substance: mA*mA*mG*mA*mU*T*A*T*C*T*T*C*T*T*T*mU*mA*mA*mU*mU (mA*mA*mG*mA*mU*dT*dA*dT*dC*dT*dT*dC*dT*dT*dT*mU*mA*mA*mU*mU) [[CDKN2B-AS1]2131]
- TLR8-500 nM: averaged NF-κB-Luciferase relative to R848: 5.62 fold

Substance: mA*mA*mG*mG*mU*G*G*C*C*A*C*A*G*G*C*mA*mA*mC*mG*mU (mA*mA*mG*mG*mU*dG*dG*dC*dC*dA*dC*dA*dG*dG*dC*mA*mA*mC*mG*mU; antisense) [[CDKN2B-AS1]2198]
- TLR8-500 nM: averaged NF-κB-Luciferase relative to R848: 0.78 fold

Substance: mA*mA*mU*mA*mU*C*T*G*C*T*G*C*C*C*A*mC*mC*mU*mU*mC (mA*mA*mU*mA*mU*dC*dT*dG*dC*dT*dG*dC*dC*dC*dA*mC*mC*mU*mU*mC; antisense) [[CDKN2B-AS1]832]
- TLR8-500 nM: averaged NF-κB-Luciferase relative to R848: 4.45 fold

Substance: mA*mA*mU*mU*mU*A*A*A*G*C*A*T*G*A*A*mU*mA*mU*mU*mA (mA*mA*mU*mU*mU*dA*dA*dA*dG*dC*dA*dT*dG*dA*dA*mU*mA*mU*mU*mA) [[CDKN2B-AS1]645]
- TLR8-500 nM: averaged NF-κB-Luciferase relative to R848: 5.02 fold

Substance: mA*mC*mC*mC*mU*T*C*T*C*T*C*T*G*G*T*mC*mC*mC*mA*mU (mA*mC*mC*mC*mU*dT*dC*dT*dC*dT*dC*dT*dG*dG*dT*mC*mC*mC*mA*mU; antisense) [[LINC-PINT]115]
- TLR8-500 nM: averaged NF-κB-Luciferase relative to R848: 7.57 fold

Substance: mA*mG*mA*mA*mA*G*A*A*G*C*A*A*A*G*A*mU*mU*mC*mA*mA (AGAAAGAAGCAAAGAUUCAA; sugars from the 5' end m5 d10 m5, all phosphorothioate, methylation of C not given here) [[CDKN2B-AS1]1519]
- TLR8-500 nM: averaged NF-κB-Luciferase relative to R848: 2.78 fold

Substance: mA*mG*mA*mU*mU*A*T*C*T*T*C*T*T*T*T*mA*mA*mU*mU*mU (AGAUUATCTTCTTTTAAUUU; sugars from the 5' end m5 d10 m5, all phosphorothioate, methylation of C not given here) [[CDKN2B-AS1]2130]
- TLR8-500 nM: averaged NF-κB-Luciferase relative to R848: 6.26 fold

Substance: mA*mG*mC*mC*mG*A*A*C*A*G*A*A*G*G*A*mG*mC*mG*mU*mC (AGCCGAACAGAAGGAGCGUC; sugars from the 5' end m5 d10 m5, all phosphorothioate, methylation of C not given here) [[LINC-PINT]587 KL]
- TLR8-500 nM: averaged NF-κB-Luciferase relative to R848: 3.73 fold

Substance: mA*mG*mG*mA*mU*T*A*A*A*A*C*A*G*A*T*mU*mA*mA*mU*mA (mA*mG*mG*mA*mU*dT*dA*dA*dA*dA*dC*dA*dG*dA*dT*mU*mA*mA*mU*mA) [[CDKN2B-AS1] 1775]
- TLR8-500 nM: averaged NF-κB-Luciferase relative to R848: 2.63 fold

Substance: mA*mG*mG*mC*mC*T*C*C*A*G*T*G*T*C*T*mU*mC*mU*mC*mC (mA*mG*mG*mC*mC*dT*dC*dC*dA*dG*dT*dG*dT*dC*dT*mU*mC*mU*mC*mC; antisense) [[CDKN2B-AS1]2218]
- TLR8-500 nM: averaged NF-κB-Luciferase relative to R848: 4.66 fold

Substance: mA*mU*mA*mU*mC*T*G*C*T*G*C*C*C*A*C*mC*mU*mU*mC*mU (AUAUCTGCTGCCCACCUUCU; antisense; sugars from the 5' end m5 d10 m5, all phosphorothioate, methylation of C not given here) [[CDKN2B-AS1]831]
- TLR8-500 nM: averaged NF-κB-Luciferase relative to R848: 5.89 fold

Substance: mA*mU*mG*mA*mC*A*T*T*T*C*G*T*G*G*C*mU*mC*mC*mU*mA (mA*mU*mG*mA*mC*dA*dT*dT*dT*dC*dG*dT*dG*dG*dC*mU*mC*mC*mU*mA) [[LINC-PINT]524.1]
- TLR8-500 nM: averaged NF-κB-Luciferase relative to R848: 1.20 fold

Substance: mC*mA*mA*mG*mC*C*C*C*A*G*C*G*T*T*C*mC*mU*mC*mC*mG (mC*mA*mA*mG*mC*dC*dC*dC*dA*dG*dC*dG*dT*dT*dC*mC*mU*mC*mC*mG; antisense) [[LINC-PINT]83.1]
- TLR8-500 nM: averaged NF-κB-Luciferase relative to R848: 4.44 fold
